According to the CheMixHub ionic liquid set:
Where “and” joins values, the source holds several entries; their conditions need not be identical. Equal entries are not always repeated. ± gives the uncertainty stated by the source.

Test: xn = mol fraction of the nth substance listed

In the case of CCCC[n+]1ccn(C)c1.O=C([O-])C(F)(F)F + OCCOCCOCCOCCO, the viscosity (298.15 K, 101 kPa, x2 = 0) is reported as 71.1 ± 1.9 mPa·s and the viscosity (298.15 K, 101 kPa, x2 = 0.5) is reported as 71 ± 1.9 mPa·s.
Work on CC1COC(=O)O1 (stereo not given) + CC[n+]1ccn(C)c1.O=S(=O)([O-])C(F)(F)F yielded a viscosity (293.15 K, 101 kPa, x2 = 0) of 2.94 ± 0.18 mPa·s and a viscosity (343.15 K, 101 kPa, x2 = 0) of 1.251 ± 0.076 mPa·s.
CC(=O)[O-].CCCC[n+]1ccn(C)c1 + CCCC[n+]1ccn(C)c1.O=S(=O)([N-]S(=O)(=O)C(F)(F)F)C(F)(F)F gave an electrical conductivity (283.15 K, 101 kPa, x2 = 0) of 0.0145 ± 0.00058 S/m, a viscosity (283.15 K, 101 kPa, x2 = 0) of 1815 ± 200 mPa·s and an electrical conductivity (283.15 K, 101 kPa, x2 = 0.1057) of 0.0213 ± 0.00085 S/m. It also gave a viscosity (283.15 K, 101 kPa, x2 = 0.1057) of 1212 ± 130 mPa·s, an electrical conductivity (283.15 K, 101 kPa, x2 = 0.3662) of 0.0403 ± 0.0016 S/m and a viscosity (283.15 K, 101 kPa, x2 = 0.3662) of 565 ± 59 mPa·s. For the same molecule, the electrical conductivity (298.15 K, 101 kPa, x2 = 0.8097) was 0.28 ± 0.011 S/m, the viscosity (298.15 K, 101 kPa, x2 = 0.8097) was 73 ± 7.4 mPa·s and the viscosity (303.15 K, 101 kPa, x1 = 0.5001) was 100 ± 4.6 mPa·s. It also gave a viscosity (303.15 K, 101 kPa, x1 = 0.7497) of 161.5 ± 8.9 mPa·s, an electrical conductivity (313.15 K, 101 kPa, x2 = 0) of 0.138 ± 0.0055 S/m and a viscosity (313.15 K, 101 kPa, x2 = 0) of 154 ± 17 mPa·s. It also gave an electrical conductivity (313.15 K, 101 kPa, x2 = 0.1057) of 0.168 ± 0.0067 S/m, a viscosity (313.15 K, 101 kPa, x2 = 0.1057) of 128 ± 13 mPa·s and an electrical conductivity (313.15 K, 101 kPa, x2 = 0.3662) of 0.236 ± 0.0094 S/m. The viscosity (313.15 K, 101 kPa, x2 = 0.3662) was 82 ± 8.3 mPa·s, the electrical conductivity (313.15 K, 101 kPa, x2 = 0.6541) was 0.387 ± 0.015 S/m and the viscosity (313.15 K, 101 kPa, x2 = 0.6541) was 49.4 ± 5 mPa·s. For the same molecule, the electrical conductivity (313.15 K, 101 kPa, x2 = 0.8097) was 0.504 ± 0.02 S/m, the viscosity (313.15 K, 101 kPa, x2 = 0.8097) was 38.2 ± 3.8 mPa·s and the viscosity (314.3 K, 101 kPa, x2 = 0) was 126 ± 14 mPa·s and 138 ± 15 mPa·s. For the same molecule, the electrical conductivity (314.3 K, 101 kPa, x2 = 0.7282) was 0.474 ± 0.019 S/m, the viscosity (314.3 K, 101 kPa, x2 = 0.7282) was 39.2 ± 3.9 mPa·s and the viscosity (323.15 K, 101 kPa, x1 = 0.7497) was 56 ± 2.3 mPa·s. For the same molecule, the electrical conductivity (333.15 K, 101 kPa, x2 = 0.1057) was 0.416 ± 0.017 S/m and the viscosity (333.15 K, 101 kPa, x2 = 0.1057) was 47.4 ± 4.9 mPa·s.
Molecule CC1COC(=O)O1 (stereo not given) + CCCCCCCCn1cc[n+](C)c1.F[B-](F)(F)F has a viscosity (323.15 K, 99.7 kPa, x1 = 1) of 1.77 ± 0.25 mPa·s.
For CCCC[N+]1(C)CCCC1.N#C[N-]C#N + CCCC[N+]1(C)CCCC1.O=S(=O)([N-]S(=O)(=O)C(F)(F)F)C(F)(F)F, the electrical conductivity (318 K, 101 kPa, frequency 0 MHz, x2 = 0.5) was 0.962 ± 0.096 S/m, the viscosity (318 K, 101 kPa, x2 = 0.5) was 22.7 ± 1.2 mPa·s and the electrical conductivity (323 K, 101 kPa, frequency 0 MHz, x2 = 0.5) was 1.12 ± 0.11 S/m. It also gave a viscosity (323 K, 101 kPa, x2 = 0.5) of 19.7 ± 1 mPa·s.
O + CCCCCCCCCCCCCCCC[n+]1ccccc1.O=C([O-])C(O)c1ccccc1 + NCC(=O)O showed an electrical conductivity (293.15 K, 101 kPa, x2 = 0, x3 = 0) of 0.00012 S/m, an electrical conductivity (298.15 K, 101 kPa, x2 = 0, x3 = 0) of 0.00015 S/m and an electrical conductivity (303.15 K, 101 kPa, x2 = 0, x3 = 0) of 0.00016 S/m. It also gave an electrical conductivity (308.15 K, 101 kPa, x2 = 0, x3 = 0) of 0.00017 S/m and an electrical conductivity (313.15 K, 101 kPa, x2 = 0, x3 = 0) of 0.00019 S/m.
In the case of CCCC[n+]1ccn(C)c1.F[B-](F)(F)F + OCC(F)(F)F, the viscosity (278.15 K, 101 kPa, x2 = 0) is reported as 360 ± 11 mPa·s, the viscosity (283.15 K, 101 kPa, x2 = 0) is reported as 255 ± 7 mPa·s and the viscosity (288.15 K, 101 kPa, x2 = 0) is reported as 186 ± 5 mPa·s. For the same molecule, the viscosity (293.15 K, 101 kPa, x2 = 0) was 139 ± 3 mPa·s, the viscosity (298.15 K, 101 kPa, x2 = 0) was 106 ± 2 mPa·s and the viscosity (303.15 K, 101 kPa, x2 = 0) was 82.2 ± 1.7 mPa·s. The viscosity (308.15 K, 101 kPa, x2 = 0) was 65 ± 1.3 mPa·s, the viscosity (313.15 K, 101 kPa, x2 = 0) was 52.2 ± 1.1 mPa·s and the viscosity (318.15 K, 101 kPa, x2 = 0) was 42.6 ± 0.9 mPa·s. It also gave a viscosity (323.15 K, 101 kPa, x2 = 0) of 35.2 ± 0.7 mPa·s, a viscosity (328.15 K, 101 kPa, x2 = 0) of 29.5 ± 0.6 mPa·s and a viscosity (333.15 K, 101 kPa, x2 = 0) of 25 ± 0.5 mPa·s.
For CCC1COC(=O)O1 (stereo not given) + O=S(=O)([N-]S(=O)(=O)C(F)(F)F)C(F)(F)F.[Li+] + COC(=O)OC, the viscosity (298.15 K, 100 kPa, x2 = 0.333, x3 = 0) was 323 ± 20 mPa·s, the viscosity (298.15 K, 100 kPa, x2 = 0.333, x3 = 0.3335) was 157 ± 7 mPa·s and the viscosity (298.15 K, 100 kPa, x2 = 0.333, x3 = 0.5002) was 93.7 ± 3.4 mPa·s.
